Source: patent US8513232B2, “Substituted spirocyclic piperidine derivatives as histamine-3 (H3) receptor ligands” (Cephalon, Inc., priority 2008, dated 2013)

Key:
human H3 receptor = molecular target: T1, human H3 receptor (Homo sapiens, UniProt Q9Y5N1); assay: Human H3 radioligand binding ([3H]-N-alpha-methylhistamine, SPA); settings: human H3 binding, Table D; read-out: Human H3 Ki
T1 construct: expressed in transfected cells
Summary of the method: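 SPA competition binding on membranes from CHO cells stably expressing human H3 receptor (10 μg protein/well) with ~1 nM [3H]-N-alpha-methylhistamine and compound at 0.01 nM-30 μM. Incubation 4 h at room temperature in 50 mM Tris-HCl pH 7.4, 5 mM MgCl2, 0.1% BSA; non-specific binding defined with 10 μM clobenpropit.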

[1] = molecular target: T2, rat histamine H3 receptor (Rattus norvegicus, UniProt Q9QYN8); assay: Rat H3 radioligand binding ([3H]-N-alpha-methylhistamine, SPA); settings: rat H3 binding, Table D; read-out: Rat H3 Ki
T2 construct: encoding the entire 445-amino-acid rat histamine H3 receptor; expressed in transfected cells; membrane preparation
Summary of the method: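 Membranes from CHO-A3 cells stably expressing full-length rat H3 receptor (10 μg protein/well) incubated 4 h at room temperature, protected from light, with ~1 nM [3H]-N-alpha-methylhistamine and compound (0.01 nM-30 μM) in 50 mM Tris HCl pH 7.4, 5 mM MgCl2, 0.1% BSA. Binding read by SPA; 10 μM clobenpropit defined non-specific binding.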

T2 sequence (Q9QYN8 whole entry): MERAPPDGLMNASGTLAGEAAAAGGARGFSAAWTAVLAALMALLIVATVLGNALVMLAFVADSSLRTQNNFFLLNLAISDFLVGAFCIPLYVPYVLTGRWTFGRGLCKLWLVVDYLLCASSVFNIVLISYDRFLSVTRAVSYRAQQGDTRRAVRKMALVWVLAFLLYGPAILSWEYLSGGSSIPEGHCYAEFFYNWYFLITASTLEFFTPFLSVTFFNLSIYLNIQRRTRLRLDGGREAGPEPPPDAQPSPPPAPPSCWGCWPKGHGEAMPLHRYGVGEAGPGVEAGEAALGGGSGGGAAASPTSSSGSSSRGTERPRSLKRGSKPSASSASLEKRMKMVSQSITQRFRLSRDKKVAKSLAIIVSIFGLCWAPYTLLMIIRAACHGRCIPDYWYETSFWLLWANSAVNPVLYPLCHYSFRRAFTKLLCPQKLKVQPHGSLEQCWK
T1 sequence (Q9Y5N1 whole entry): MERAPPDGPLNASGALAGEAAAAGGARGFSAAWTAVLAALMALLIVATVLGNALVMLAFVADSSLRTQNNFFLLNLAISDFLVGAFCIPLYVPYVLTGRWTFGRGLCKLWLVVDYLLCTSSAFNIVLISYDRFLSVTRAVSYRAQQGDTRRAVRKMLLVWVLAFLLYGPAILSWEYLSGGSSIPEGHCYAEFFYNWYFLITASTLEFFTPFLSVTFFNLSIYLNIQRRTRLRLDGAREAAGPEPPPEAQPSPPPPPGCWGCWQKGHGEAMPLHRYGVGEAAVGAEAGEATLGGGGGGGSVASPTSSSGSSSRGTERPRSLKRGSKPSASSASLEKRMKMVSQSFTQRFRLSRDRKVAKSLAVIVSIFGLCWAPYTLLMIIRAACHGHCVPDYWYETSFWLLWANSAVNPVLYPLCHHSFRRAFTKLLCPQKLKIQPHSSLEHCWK

Row | Ki (human H3 receptor) [nM] | Ki [1] [nM] | melting point [°C] | SMILES
1 | 200 to 1000 | > 1000 | 162 to 164 | COc1ccc(-c2ccc3c(c2)COC2(CCN(C4COC4)CC2)O3)cn1 [Example 713]
2 | < 200 | < 200 | 175 to 177 | COc1ncc(-c2ccc3c(c2)COC2(CCN(C4CCC4)CC2)O3)cc1F [Example 714]
3 | > 1000 | > 1000 | 151 to 153 | COc1ccc(-c2ccc3c(c2)COC2(CCN(CC4CCOCC4)CC2)O3)cn1 [Example 716]
4 | > 1000 | > 1000 | 262 to 264 | O=c1ccc(-c2ccc3c(c2)COC2(CCN(C4COC4)CC2)O3)c[nH]1 [Example 718]
5 | < 200 | < 200 | 176 to 177 | CC(C)n1cc(-c2ccc3c(c2)COC2(CCN(C4CCC4)CC2)O3)ccc1=O [Example 719]
6 | < 200 | < 200 | 129 to 130 | O=c1ccc(-c2ccc3c(c2)COC2(CCN(C4CCC4)CC2)O3)cn1CCO [Example 720]
7 | 200 to 1000 | > 1000 | 245 to 248 | O=c1ccc(-c2ccc3c(c2)COC2(CCN(CC4CCOCC4)CC2)O3)c[nH]1 [Example 722]
8 | < 200 | < 200 | 131 to 133 | COc1ccc(-c2ccc3c(c2)COC2(CCN(C4CCC4)CC2)O3)c(C)n1 [Example 726]
9 | < 200 | < 200 | 200 to 202 | O=c1[nH]cc(-c2ccc3c(c2)COC2(CCN(C4CCC4)CC2)O3)cc1F [Example 727]
10 | 200 to 1000 | 200 to 1000 | 222 to 226 | O=c1ccc(-c2ccc3c(c2)COC2(CCN(C4CCOC4)CC2)O3)c[nH]1 (stereo not drawn) [Example 729]
11 | < 200 | < 200 | 241 to 243 | CC(C)(C)N1CCC2(CC1)OCc1cc(-c3ccc(=O)[nH]c3)ccc1O2 [Example 733]
12 | > 1000 | > 1000 | 260 to 262 | COc1ccc(-c2ccc3c(c2)COC2(CCN(C4CC(C(=O)O)C4)CC2)O3)cn1 (stereo not drawn) [Example 734]
13 | > 1000 | > 1000 | 247 to 249 | CN(C)C(=O)C1CC(N2CCC3(CC2)OCc2cc(-c4ccc(=O)[nH]c4)ccc2O3)C1 (stereo not drawn) [Example 735]

Further lines, the compound ahead of its results:

Row | SMILES | Ki (human H3 receptor) [nM] | Ki [1] [nM] | melting point [°C]
14 | COc1cc(C(N)=O)ccc1-c1ccc2c(c1)COC1(CCN(C3CCC3)CC1)O2 [Example 712] | < 200 | < 200 | 122 to 124
15 | NC(=O)c1ccc(-c2ccc3c(c2)COC2(CCN(C4CCC4)CC2)O3)c(Cl)c1 [Example 715] | < 200 | < 200 | 112 to 114
16 | COc1ccc(-c2ccc3c(c2)COC2(CCN(C4CC(CO)C4)CC2)O3)cn1 (stereo not drawn) [Example 717] | 200 to 1000 | 200 to 1000 | 123 to 125
17 | O=c1ccc(-c2ccc3c(c2)COC2(CCN(C4CCOCC4)CC2)O3)c[nH]1 [Example 723] | < 200 | < 200 | 230 to 232
18 | COc1ccc(-c2ccc3c(c2)COC2(CCN(C4CCOC4)CC2)O3)cn1 (stereo not drawn) [Example 725] | 200 to 1000 | 200 to 1000 | 139 to 141
19 | CCSc1cc(-c2ccc3c(c2)COC2(CCN(C4CCC4)CC2)O3)c[nH]c1=O [Example 728] | < 200 | < 200 | 241 to 243
20 | c1cc(-c2ccc3c(c2)COC2(CCN(C4CCC4)CC2)O3)[nH]n1 [Example 730] | < 200 | < 200 | 140 to 141
21 | Cc1cnc(-c2ccc3c(c2)COC2(CCN(C4CCC4)CC2)O3)c(C)n1 [Example 731] | < 200 | < 200 | 224 to 225
22 | COc1ccc(-c2ccc3c(c2)COC2(CCN(C(C)(C)C)CC2)O3)cn1 [Example 732] | < 200 | < 200 | 152 to 154
